The target in this assay is T1, Autotaxin (Homo sapiens, UniProt Q13822).
T1 construct: from tissue; host or cells: pooled human plasma
The experiment in a line: LPA formation in pooled human plasma (ex vivo autotaxin inhibition). The assay is classed as biochemical. The settings on record: 2 hours incubation. The gist of the method: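 Ex vivo: LPA 18:2 and 20:4 levels in compound-treated versus untreated pooled human plasma after 2 h incubation, measured by butanol extraction and negative-mode MRM LC/MS/MS against calibration standards. IC50 from non-linear fit of inhibition versus concentration.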

The mark [1] stands for this setting: LPA 18:2 by LC/MS/MS, read-out: LPA formation (18:2) (IC50).
Setting [2] is: LPA 20:4 by LC/MS/MS, read-out: LPA formation (20:4) (IC50).

Each structure is given as a SMILES string. Where two headings read alike, the source gives them in different places. Where only a bound is given, the exact number is not on record here.

As for `Cc1cc(N2CCN(CC(=O)O)CC2)cc2c(N(C)c3nc(-c4ccc(F)cc4)c(C#N)s3)c(C3CC3)nn12` [Example 80, 2-(4-(3-((5-cyano-4-(4-fluorophenyl)thiazol-2-yl)(methyl)amino)-2-cyclopropyl-7-methylpyrazolo[1,5-a]pyridin-5-yl)piperazin-1-yl)acetic acid], the IC50 reads like this: under setting [1], more than 1000 nM; under setting [2], more than 1000 nM.
For the compound `Cc1cc(N2CCN(C[C@@H](O)CO)CC2)cc2c(N(C)c3nc(-c4ccc(F)cc4)c(C#N)s3)c(C3CC3)nn12` [Example 82, (R)-2-((2-cyclopropyl-5-(4-(2,3-dihydroxypropyl)piperazin-1-yl)-7-methylpyrazolo[1,5-a]pyridin-3-yl)(methyl)amino)-4-(4-fluorophenyl)thiazole-5-carbonitrile], the IC50 is 100 to 500 nM under setting [1] and 100 to 500 nM under setting [2].
Consider `Cc1cc(N2CCN(C[C@H](O)CO)CC2)cc2c(N(C)c3nc(-c4ccc(F)cc4)c(C#N)s3)c(C3CC3)nn12` [Example 83, (S)-2-((2-cyclopropyl-5-(4-(2,3-dihydroxypropyl)piperazin-1-yl)-7-methylpyrazolo[1,5-a]pyridin-3-yl)(methyl)amino)-4-(4-fluorophenyl)thiazole-5-carbonitrile], for which the IC50 is 500 to 1000 nM under setting [1] and 500 to 1000 nM under setting [2].
For `Cc1cc(N2CC3(CN(C(=O)C4CN(C)C4)C3)C2)cc2c(N(C)c3nc(-c4ccc(F)cc4)c(C#N)s3)c(C3CC3)nn12` [Example 84, 2-((2-cyclopropyl-7-methyl-5-(6-(1-methylazetidine-3-carbonyl)-2,6-diazaspiro[3.3]heptan-2-yl)pyrazolo[1,5-a]pyridin-3-yl)(methyl)amino)-4-(4-fluorophenyl)thiazole-5-carbonitrile], the IC50 by setting is: under setting [1], not above 100 nM; under setting [2], not above 100 nM.
Consider `Cc1cc(N2CC3(CN(C(=O)C4CCN(C)C4)C3)C2)cc2c(N(C)c3nc(-c4ccc(F)cc4)c(C#N)s3)c(C3CC3)nn12` (centres unmarked) [Example 85, 2-((2-cyclopropyl-7-methyl-5-(6-(1-methylpyrrolidine-3-carbonyl)-2,6-diazaspiro[3.3]heptan-2-yl)pyrazolo[1,5-a]pyridin-3-yl)(methyl)amino)-4-(4-fluorophenyl)thiazole-5-carbonitrile], for which the IC50 reads like this: under setting [1], 100 to 500 nM; under setting [2], 100 to 500 nM.
As for `Cc1cc(N2CCC3(CN(C(=O)[C@H]4CCOC4)C3)C2)cc2c(N(C)c3nc(-c4ccc(F)cc4)c(C#N)s3)c(C3CC3)nn12` [Example 86, (S)-2-((2-cyclopropyl-7-methyl-5-(2-(tetrahydrofuran-3-carbonyl)-2,6-diazaspiro[3.4]octan-6-yl)pyrazolo[1,5-a]pyridin-3-yl)(methyl)amino)-4-(4-fluorophenyl)thiazole-5-carbonitrile], the IC50 by setting is: under setting [1], not above 100 nM; under setting [2], not above 100 nM.
In the case of `Cc1cc(N2CC(O)C2)cc2c(N(C)c3nc(-c4ccc(F)cc4)c(C#N)s3)c(C3CC3)nn12` [Example 87, 2-[[2-cyclopropyl-5-(3-hydroxyazetidin-1-yl)-7-methyl-pyrazolo[1,5-a]pyridin-3-yl]-methyl-amino]-4-(4-fluorophenyl)thiazole-5-carbonitrile], the IC50 under setting [1] was more than 1000 nM and the IC50 under setting [2] was more than 1000 nM.
On to `Cc1cc(N2CC(C#N)C2)cc2c(N(C)c3nc(-c4ccc(F)cc4)c(C#N)s3)c(C3CC3)nn12` [Example 88, 2-[[5-(3-cyanoazetidin-1-yl)-2-cyclopropyl-7-methyl-pyrazolo[1,5-a]pyridin-3-yl]-methyl-amino]-4-(4-fluorophenyl)thiazole-5-carbonitrile], for which the IC50 under setting [1] was more than 1000 nM and the IC50 under setting [2] was more than 1000 nM.
`Cc1cc(N2CC3(CN(C(=O)C4(O)CCOCC4)C3)C2)cc2c(N(C)c3nc(-c4ccc(F)cc4)c(C#N)s3)c(C3CC3)nn12` [Example 90, 2-((2-cyclopropyl-5-(6-(4-hydroxytetrahydro-2H-pyran-4-carbonyl)-2,6-diazaspiro[3.3]heptan-2-yl)-7-methylpyrazolo[1,5-a]pyridin-3-yl)(methyl)amino)-4-(4-fluorophenyl)thiazole-5-carbonitrile]: the IC50 was not above 100 nM under setting [1] and not above 100 nM under setting [2].
For `Cc1cc(N2CC3(CN(C(=O)C45CC(C4)C5)C3)C2)cc2c(N(C)c3nc(-c4ccc(F)cc4)c(C#N)s3)c(C3CC3)nn12` [Example 91, 2-((5-(6-(bicyclo[1.1.1]pentane-1-carbonyl)-2,6-diazaspiro[3.3]heptan-2-yl)-2-cyclopropyl-7-methylpyrazolo[1,5-a]pyridin-3-yl)(methyl)amino)-4-(4-fluorophenyl)thiazole-5-carbonitrile], the IC50 is, setting by setting: under setting [1], 100 to 500 nM; under setting [2], 100 to 500 nM.
Consider `Cc1cc(N2CCN(C3COCC3O)CC2)cc2c(N(C)c3nc(-c4ccc(F)cc4)c(C#N)s3)c(C3CC3)nn12` (centres unmarked) [Example 92], for which the IC50 is, setting by setting: under setting [1], 100 to 500 nM; under setting [2], 100 to 500 nM.
With `Cc1cc(N2CCC(N3CC(O)C3)CC2)cc2c(N(C)c3nc(-c4ccc(F)cc4)c(C#N)s3)c(C3CC3)nn12` [Example 93, 2-((2-cyclopropyl-5-(4-(3-hydroxyazetidin-1-yl)piperidin-1-yl)-7-methylpyrazolo[1,5-a]pyridin-3-yl)(methyl)amino)-4-(4-fluorophenyl)thiazole-5-carbonitrile], the IC50 is 100 to 500 nM under setting [1] and 100 to 500 nM under setting [2].
In the case of `Cc1cc(N2CCN(C3COC3)CC2)cc2c(N(C)c3nc(-c4ccc(F)cc4)c(C#N)s3)c(C3CC3)nn12` [Example 94, 2-((2-cyclopropyl-7-methyl-5-(4-(oxetan-3-yl)piperazin-1-yl)pyrazolo[1,5-a]pyridin-3-yl)(methyl)amino)-4-(4-fluorophenyl)thiazole-5-carbonitrile], the IC50 under setting [1] lay in the range of 100 to 500 nM and the IC50 under setting [2] fell in the range of 500 to 1000 nM.
Consider `CCc1nn2c(C)cc(N3CCN(CC(=O)N4CC(O)C4)CC3)nc2c1N(C)c1nc(-c2ccc(F)cc2)c(C#N)s1` [Example 95, 2-((2-ethyl-5-(4-(2-(3-hydroxyazetidin-1-yl)-2-oxoethyl)piperazin-1-yl)-7-methylpyrazolo[1,5-a]pyrimidin-3-yl)(methyl)amino)-4-(4-fluorophenyl)thiazole-5-carbonitrile], for which the half-inhibitory concentration (IC50) runs as follows: under setting [1], more than 1000 nM; under setting [2], more than 1000 nM.
As to `CCc1nn2cc(C)c(N3CCN(CC(=O)N4CC(O)C4)CC3)cc2c1N(C)c1nc(-c2ccc(F)cc2)c(C#N)s1` [Example 96, 2-((2-ethyl-5-(4-(2-(3-hydroxyazetidin-1-yl)-2-oxoethyl)piperazin-1-yl)-6-methylpyrazolo[1,5-a]pyridin-3-yl)(methyl)amino)-4-(4-fluorophenyl)thiazole-5-carbonitrile], the IC50 was not above 100 nM under setting [1] and not above 100 nM under setting [2].
`CCc1nn2cc(C)c(N3CC4(CN(C(=O)C(C)(C)O)C4)C3)cc2c1N(C)c1nc(-c2ccc(F)cc2)c(C#N)s1` [Example 98, 2-((2-ethyl-5-(6-(2-hydroxy-2-methylpropanoyl)-2,6-diazaspiro[3.3]heptan-2-yl)-6-methylpyrazolo[1,5-a]pyridin-3-yl)(methyl)amino)-4-(4-fluorophenyl)thiazole-5-carbonitrile]: the half-inhibitory concentration (IC50) by setting is: under setting [1], 100 to 500 nM; under setting [2], 100 to 500 nM.
Take `CCc1nn2cc(C)c(N3CC4(CN(C(=O)C(O)CO)C4)C3)cc2c1N(C)c1nc(-c2ccc(F)cc2)c(C#N)s1` (centres unmarked) [Example 99, 2-((5-(6-(2,3-dihydroxypropanoyl)-2,6-diazaspiro[3.3]heptan-2-yl)-2-ethyl-6-methylpyrazolo[1,5-a]pyridin-3-yl)(methyl)amino)-4-(4-fluorophenyl)thiazole-5-carbonitrile]: the IC50 was not above 100 nM under setting [1] and not above 100 nM under setting [2].
For the compound `Cc1cn2nc(C3CC3)c(N(C)c3nc(-c4ccc(F)cc4)c(C#N)s3)c2cc1N1CCN(CC(=O)N2CC(O)C2)CC1` [Example 100, 2-((2-cyclopropyl-5-(4-(2-(3-hydroxyazetidin-1-yl)-2-oxoethyl)piperazin-1-yl)-6-methylpyrazolo[1,5-a]pyridin-3-yl)(methyl)amino)-4-(4-fluorophenyl)thiazole-5-carbonitrile], the IC50 was not above 100 nM under setting [1] and not above 100 nM under setting [2].
With `CCc1nn2cc(F)c(N3CC4(CN(C(=O)N5CCN(C)CC5)C4)C3)cc2c1N(C)c1nc(-c2ccc(F)cc2)c(C#N)s1` [Example 105, 2-((2-ethyl-6-fluoro-5-(6-(4-methylpiperazine-1-carbonyl)-2,6-diazaspiro[3.3]heptan-2-yl)pyrazolo[1,5-a]pyridin-3-yl)(methyl)amino)-4-(4-fluorophenyl)thiazole-5-carbonitrile], the IC50 reads like this: under setting [1], not above 100 nM; under setting [2], not above 100 nM.
As to `CCc1nn2cc(F)c(N3CC4(CN(C(=O)N5CC(O)C5)C4)C3)cc2c1N(C)c1nc(-c2ccc(F)cc2)c(C#N)s1` [Example 107, 2-((2-ethyl-6-fluoro-5-(6-(3-hydroxyazetidine-1-carbonyl)-2,6-diazaspiro[3.3]heptan-2-yl)pyrazolo[1,5-a]pyridin-3-yl)(methyl)amino)-4-(4-fluorophenyl)thiazole-5-carbonitrile], the IC50 is, setting by setting: under setting [1], not above 100 nM; under setting [2], not above 100 nM.
On to `CCc1nn2cc(F)c(N3CC4(CN(C(=O)N5CCOCC5)C4)C3)cc2c1N(C)c1nc(-c2ccc(F)cc2)c(C#N)s1` [Example 108, 2-((2-ethyl-6-fluoro-5-(6-(morpholine-4-carbonyl)-2,6-diazaspiro[3.3]heptan-2-yl)pyrazolo[1,5-a]pyridin-3-yl)(methyl)amino)-4-(4-fluorophenyl)thiazole-5-carbonitrile], for which the IC50 under setting [1] was not above 100 nM and the IC50 under setting [2] is not above 100 nM.
Regarding `CCc1nn2cc(F)c(N3CCC4(CC3)CN(C(=O)N3CC(O)C3)C4)cc2c1N(C)c1nc(-c2ccc(F)cc2)c(C#N)s1` [Example 110, 2-((2-ethyl-6-fluoro-5-(2-(3-hydroxyazetidine-1-carbonyl)-2,7-diazaspiro[3.5]nonan-7-yl)pyrazolo[1,5-a]pyridin-3-yl)(methyl)amino)-4-(4-fluorophenyl)thiazole-5-carbonitrile], the IC50 reads like this: under setting [1], not above 100 nM; under setting [2], not above 100 nM.

The record behind these values is US10711000B2 (Fronthera U.S. Pharmaceuticals LLC, priority 2018, dated 2020).
